What was measured:
[1] = target: Cyclin-dependent kinase 1/cyclin B (Homo sapiens) (UniProt P06493+P14635+Q8WWL7+O95067); experiment: CDK1/cyclinB( h) Millipore kinase activity assay; assay type: protein-complex assay; settings: Compound concentration 1.0 uM
[2] = target: Ephrin type-A receptor 7 (Homo sapiens) (UniProt Q15375); experiment: EphA7 (h) Millipore kinase activity assay; settings: Compound concentration 1.0 uM
[3] = target: G protein-coupled receptor kinase 5 (Homo sapiens) (UniProt P34947); experiment: GRK5 (h) Millipore kinase activity assay; settings: Compound concentration 1.0 uM
[4] = target: Serine/threonine-protein kinase haspin (Homo sapiens) (UniProt Q8TF76); experiment: Haspin (h) Millipore kinase activity assay; settings: Compound concentration 1.0 uM
[5] = target: LIM domain kinase 1 (Homo sapiens) (UniProt P53667); experiment: LIMK1 (h) Millipore kinase activity assay; settings: Compound concentration 1.0 uM
[6] = target: Serine/threonine-protein kinase STK11 (Homo sapiens) (UniProt Q15831); experiment: LKB1 (h) Millipore kinase activity assay; settings: Compound concentration 1.0 uM
[7] = target: Serine/threonine-protein kinase Nek6 (Homo sapiens) (UniProt Q9HC98); experiment: NEK6 (h) Millipore kinase activity assay; settings: Compound concentration 1.0 uM
[8] = target: Serine/threonine-protein kinase NLK (Homo sapiens) (UniProt Q9UBE8); experiment: NLK (h) Millipore kinase activity assay; settings: Compound concentration 1.0 uM
[9] = target: Ribosomal protein S6 kinase alpha-6 (Homo sapiens) (UniProt Q9UK32); experiment: Rsk4 (h) Millipore kinase activity assay; settings: Compound concentration 1.0 uM
[10] = target: Serine/threonine-protein kinase TBK1 (Homo sapiens) (UniProt Q9UHD2); experiment: TBK1 (h) Millipore kinase activity assay; settings: Compound concentration 1.0 uM
[11] = target: Angiopoietin-1 receptor (Homo sapiens) (UniProt Q02763); experiment: Tie2 (h) Millipore kinase activity assay; settings: Compound concentration 1.0 uM
[12] = target: T1, Alpha-1D adrenergic receptor (Homo sapiens) (UniProt P25100); experiment: Inhibition of Adrenergic alpha1D at 10 µM in the Eurofins-Panlabs radioligand binding assay (Eurofins_assay_203400); settings: Compound concentration 10.0 uM
T1 sequence (whole entry): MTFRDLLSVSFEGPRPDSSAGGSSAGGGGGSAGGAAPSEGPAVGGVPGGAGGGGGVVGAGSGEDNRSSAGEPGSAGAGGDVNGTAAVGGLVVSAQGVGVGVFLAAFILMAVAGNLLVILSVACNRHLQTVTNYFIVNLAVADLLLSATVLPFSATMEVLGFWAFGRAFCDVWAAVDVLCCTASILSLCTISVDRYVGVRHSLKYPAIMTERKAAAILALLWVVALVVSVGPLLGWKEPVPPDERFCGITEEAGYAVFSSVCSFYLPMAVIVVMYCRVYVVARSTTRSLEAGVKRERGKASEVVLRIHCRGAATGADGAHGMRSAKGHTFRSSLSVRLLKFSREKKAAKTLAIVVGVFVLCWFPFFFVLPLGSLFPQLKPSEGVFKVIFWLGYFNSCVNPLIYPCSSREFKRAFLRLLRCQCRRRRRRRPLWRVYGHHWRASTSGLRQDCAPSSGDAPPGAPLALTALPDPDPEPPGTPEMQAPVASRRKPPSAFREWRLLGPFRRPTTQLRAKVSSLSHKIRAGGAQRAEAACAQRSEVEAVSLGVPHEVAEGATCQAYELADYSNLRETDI

[13] = target: Histamine H3 receptor (Homo sapiens) (UniProt Q9Y5N1); settings: Compound concentration 10.0 uM
[14] = target: 5'-AMP-activated protein kinase catalytic subunit alpha-1 (Homo sapiens) (UniProt Q13131); settings: Compound concentration 1000.0 nM
[15] = target: Serine/threonine-protein kinase BRSK2 (Homo sapiens) (UniProt Q8IWQ3); settings: Compound concentration 1000.0 nM
[16] = target: Discoidin domain-containing receptor 2 (Homo sapiens) (UniProt Q16832); settings: Compound concentration 1000.0 nM
[17] = target: Mitogen-activated protein kinase kinase kinase 12 (Homo sapiens) (UniProt Q12852); settings: Compound concentration 1000.0 nM
[18] = target: Dual specificity tyrosine-phosphorylation-regulated kinase 1A (Homo sapiens) (UniProt Q13627); settings: Compound concentration 1000.0 nM
[19] = test system: Epidermal growth factor receptor (Homo sapiens), P00533 [T790M]; settings: Compound concentration 1000.0 nM
[20] = target: Ephrin type-B receptor 1 (Homo sapiens) (UniProt P54762); settings: Compound concentration 1000.0 nM
[21] = test system: Receptor-type tyrosine-protein kinase FLT3 (Homo sapiens), P36888 [N841I]; settings: Compound concentration 1000.0 nM
[22] = target: Insulin receptor-related protein (Homo sapiens) (UniProt P14616); settings: Compound concentration 1000.0 nM
[23] = target: Tyrosine-protein kinase JAK3 (Homo sapiens) (UniProt P52333); settings: Compound concentration 1000.0 nM
[24] = target: Leukocyte tyrosine kinase receptor (Homo sapiens) (UniProt P29376); settings: Compound concentration 1000.0 nM
[25] = target: Mitogen-activated protein kinase kinase kinase 15 (Homo sapiens) (UniProt Q6ZN16); settings: Compound concentration 1000.0 nM
[26] = target: Mitogen-activated protein kinase kinase kinase 2 (Homo sapiens) (UniProt Q9Y2U5); settings: Compound concentration 1000.0 nM
[27] = target: Mitogen-activated protein kinase kinase kinase 4 (Homo sapiens) (UniProt Q9Y6R4); settings: Compound concentration 1000.0 nM
[28] = target: Tyrosine-protein kinase Mer (Homo sapiens) (UniProt Q12866); settings: Compound concentration 1000.0 nM
[29] = target: Mitogen-activated protein kinase 11 (Homo sapiens) (UniProt Q15759); settings: Compound concentration 1000.0 nM
[30] = target: Mitogen-activated protein kinase 13 (Homo sapiens) (UniProt O15264); settings: Compound concentration 1000.0 nM
[31] = target: Mitogen-activated protein kinase 12 (Homo sapiens) (UniProt P53778); settings: Compound concentration 1000.0 nM
[32] = target: Cyclin-dependent kinase 16 (Homo sapiens) (UniProt Q00536); settings: Compound concentration 1000.0 nM
[33] = target: Cyclin-dependent kinase 17 (Homo sapiens) (UniProt Q00537); settings: Compound concentration 1000.0 nM
[34] = target: Ribosomal protein S6 kinase alpha-6 (Homo sapiens) (UniProt Q9UK32); settings: Compound concentration 1000.0 nM
[35] = target: Uncharacterized serine/threonine-protein kinase SBK3 (Homo sapiens) (UniProt P0C264); settings: Compound concentration 1000.0 nM
[36] = target: STE20-like serine/threonine-protein kinase (Homo sapiens) (UniProt Q9H2G2); settings: Compound concentration 1000.0 nM
[37] = target: Tyrosine-protein kinase Tec (Homo sapiens) (UniProt P42680); settings: Compound concentration 1000.0 nM
[38] = target: Serine/threonine-protein kinase WNK2 (Homo sapiens) (UniProt Q9Y3S1); settings: Compound concentration 1000.0 nM

Chain of Ribosomal protein S6 kinase alpha-6 (Homo sapiens) (Q9UK32 whole entry): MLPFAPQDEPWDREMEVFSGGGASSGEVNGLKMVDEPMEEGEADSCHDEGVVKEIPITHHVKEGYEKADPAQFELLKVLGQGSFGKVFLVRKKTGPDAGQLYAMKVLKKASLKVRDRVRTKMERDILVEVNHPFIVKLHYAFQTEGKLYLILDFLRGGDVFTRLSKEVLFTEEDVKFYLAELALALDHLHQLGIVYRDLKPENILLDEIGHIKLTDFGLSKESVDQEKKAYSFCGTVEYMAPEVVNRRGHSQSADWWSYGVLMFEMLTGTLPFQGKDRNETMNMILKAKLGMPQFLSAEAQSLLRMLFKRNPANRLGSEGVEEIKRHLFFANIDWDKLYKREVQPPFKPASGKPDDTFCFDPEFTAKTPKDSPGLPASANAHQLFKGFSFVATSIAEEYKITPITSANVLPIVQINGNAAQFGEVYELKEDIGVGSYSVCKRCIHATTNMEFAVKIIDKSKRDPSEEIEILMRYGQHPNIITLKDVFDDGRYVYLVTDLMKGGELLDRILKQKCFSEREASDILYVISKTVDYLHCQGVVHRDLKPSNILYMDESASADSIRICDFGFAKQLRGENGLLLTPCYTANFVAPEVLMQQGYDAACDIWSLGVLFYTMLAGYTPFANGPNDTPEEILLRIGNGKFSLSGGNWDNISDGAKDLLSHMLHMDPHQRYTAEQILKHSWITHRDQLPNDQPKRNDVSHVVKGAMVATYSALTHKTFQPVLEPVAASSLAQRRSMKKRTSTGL
Chain of Tyrosine-protein kinase JAK3 (Homo sapiens) (P52333 whole entry): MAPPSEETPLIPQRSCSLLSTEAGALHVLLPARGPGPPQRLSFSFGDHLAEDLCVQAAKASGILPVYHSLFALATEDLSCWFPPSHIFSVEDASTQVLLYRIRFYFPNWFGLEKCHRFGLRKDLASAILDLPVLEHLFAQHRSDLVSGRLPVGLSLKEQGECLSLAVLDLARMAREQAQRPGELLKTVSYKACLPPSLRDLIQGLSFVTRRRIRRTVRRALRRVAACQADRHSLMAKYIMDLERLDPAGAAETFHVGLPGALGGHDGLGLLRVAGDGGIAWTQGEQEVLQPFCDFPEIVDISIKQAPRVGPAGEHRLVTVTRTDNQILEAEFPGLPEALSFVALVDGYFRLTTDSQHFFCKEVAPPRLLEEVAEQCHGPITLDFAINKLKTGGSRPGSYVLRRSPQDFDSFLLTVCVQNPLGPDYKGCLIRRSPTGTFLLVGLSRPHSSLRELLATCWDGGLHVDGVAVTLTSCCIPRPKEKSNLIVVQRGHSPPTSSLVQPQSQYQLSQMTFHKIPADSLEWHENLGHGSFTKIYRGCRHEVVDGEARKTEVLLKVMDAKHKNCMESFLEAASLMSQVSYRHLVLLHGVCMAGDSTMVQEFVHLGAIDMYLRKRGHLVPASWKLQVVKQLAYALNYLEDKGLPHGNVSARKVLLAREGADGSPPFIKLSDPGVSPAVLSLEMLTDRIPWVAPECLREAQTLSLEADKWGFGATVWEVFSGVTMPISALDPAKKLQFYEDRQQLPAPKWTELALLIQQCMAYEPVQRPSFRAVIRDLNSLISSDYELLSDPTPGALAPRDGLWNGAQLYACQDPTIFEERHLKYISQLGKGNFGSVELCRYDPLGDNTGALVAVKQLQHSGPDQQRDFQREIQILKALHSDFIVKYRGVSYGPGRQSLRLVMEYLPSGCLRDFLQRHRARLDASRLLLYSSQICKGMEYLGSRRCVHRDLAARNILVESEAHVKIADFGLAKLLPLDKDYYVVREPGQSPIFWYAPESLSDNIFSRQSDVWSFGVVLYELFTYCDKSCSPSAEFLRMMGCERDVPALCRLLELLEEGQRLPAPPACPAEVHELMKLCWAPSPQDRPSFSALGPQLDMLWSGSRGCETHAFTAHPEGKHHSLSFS
Chain of Insulin receptor-related protein (Homo sapiens) (P14616 27-742 limits assumed): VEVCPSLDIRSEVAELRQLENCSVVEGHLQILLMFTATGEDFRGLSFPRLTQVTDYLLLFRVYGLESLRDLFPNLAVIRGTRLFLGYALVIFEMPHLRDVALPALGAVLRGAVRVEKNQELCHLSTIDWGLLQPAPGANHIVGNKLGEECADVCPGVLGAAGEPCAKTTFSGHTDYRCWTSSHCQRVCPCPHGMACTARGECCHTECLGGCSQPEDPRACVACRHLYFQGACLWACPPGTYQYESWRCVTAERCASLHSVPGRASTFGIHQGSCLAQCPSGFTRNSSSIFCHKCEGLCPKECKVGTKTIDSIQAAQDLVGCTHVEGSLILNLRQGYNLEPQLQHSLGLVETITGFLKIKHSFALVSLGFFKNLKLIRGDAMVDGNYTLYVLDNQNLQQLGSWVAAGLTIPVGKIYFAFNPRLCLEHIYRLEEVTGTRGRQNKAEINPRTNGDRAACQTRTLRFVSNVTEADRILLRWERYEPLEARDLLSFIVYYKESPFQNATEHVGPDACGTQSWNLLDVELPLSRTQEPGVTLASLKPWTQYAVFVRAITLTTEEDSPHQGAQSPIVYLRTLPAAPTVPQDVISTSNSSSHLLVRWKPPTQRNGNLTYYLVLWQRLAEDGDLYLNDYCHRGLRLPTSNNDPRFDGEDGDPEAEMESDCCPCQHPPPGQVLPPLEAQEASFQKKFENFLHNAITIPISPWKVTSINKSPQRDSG
Chain of Insulin receptor-related protein (Homo sapiens) (P14616 747-1297 limits assumed): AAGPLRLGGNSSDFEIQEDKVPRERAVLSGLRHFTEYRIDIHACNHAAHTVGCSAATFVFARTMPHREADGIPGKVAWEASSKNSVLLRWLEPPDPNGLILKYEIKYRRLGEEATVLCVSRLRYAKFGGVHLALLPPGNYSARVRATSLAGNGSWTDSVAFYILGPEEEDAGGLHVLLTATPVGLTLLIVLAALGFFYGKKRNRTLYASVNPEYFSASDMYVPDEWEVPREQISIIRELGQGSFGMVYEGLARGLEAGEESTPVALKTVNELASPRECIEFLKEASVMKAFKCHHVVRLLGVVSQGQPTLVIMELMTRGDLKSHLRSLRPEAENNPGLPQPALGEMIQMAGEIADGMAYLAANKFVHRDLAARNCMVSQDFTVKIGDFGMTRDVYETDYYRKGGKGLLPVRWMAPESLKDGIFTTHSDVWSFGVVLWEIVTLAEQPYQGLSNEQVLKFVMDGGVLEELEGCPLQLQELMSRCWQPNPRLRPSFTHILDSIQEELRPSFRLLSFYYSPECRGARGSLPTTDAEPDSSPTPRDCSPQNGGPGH
Chain of 5'-AMP-activated protein kinase catalytic subunit alpha-1 (Homo sapiens) (Q13131 whole entry, looked up): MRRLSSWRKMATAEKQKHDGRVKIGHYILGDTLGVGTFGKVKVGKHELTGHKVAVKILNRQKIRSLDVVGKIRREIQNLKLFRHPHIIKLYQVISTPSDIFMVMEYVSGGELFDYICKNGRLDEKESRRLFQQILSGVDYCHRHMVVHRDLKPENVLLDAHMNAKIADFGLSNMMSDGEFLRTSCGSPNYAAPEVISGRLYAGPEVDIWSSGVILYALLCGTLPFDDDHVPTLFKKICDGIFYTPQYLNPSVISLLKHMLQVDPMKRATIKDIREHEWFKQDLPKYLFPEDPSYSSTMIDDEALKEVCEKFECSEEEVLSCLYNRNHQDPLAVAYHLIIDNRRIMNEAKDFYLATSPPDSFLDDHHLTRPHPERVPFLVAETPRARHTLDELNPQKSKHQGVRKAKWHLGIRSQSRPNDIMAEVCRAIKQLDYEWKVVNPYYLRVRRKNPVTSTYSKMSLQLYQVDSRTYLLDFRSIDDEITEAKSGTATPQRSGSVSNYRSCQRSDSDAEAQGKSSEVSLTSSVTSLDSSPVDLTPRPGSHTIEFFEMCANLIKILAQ
Chain of Mitogen-activated protein kinase 13 (Homo sapiens) (O15264 whole entry): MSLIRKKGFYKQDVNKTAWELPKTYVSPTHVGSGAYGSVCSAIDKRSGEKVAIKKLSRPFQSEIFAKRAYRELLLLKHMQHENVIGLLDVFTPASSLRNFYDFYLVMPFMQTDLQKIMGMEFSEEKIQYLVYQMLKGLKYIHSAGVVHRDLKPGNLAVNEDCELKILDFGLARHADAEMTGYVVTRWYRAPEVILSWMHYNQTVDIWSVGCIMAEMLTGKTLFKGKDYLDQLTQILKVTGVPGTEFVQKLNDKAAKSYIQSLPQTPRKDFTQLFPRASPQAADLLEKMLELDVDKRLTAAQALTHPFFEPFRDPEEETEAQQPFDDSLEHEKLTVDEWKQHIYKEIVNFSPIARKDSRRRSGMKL
Chain of G protein-coupled receptor kinase 5 (Homo sapiens) (P34947 whole entry, looked up): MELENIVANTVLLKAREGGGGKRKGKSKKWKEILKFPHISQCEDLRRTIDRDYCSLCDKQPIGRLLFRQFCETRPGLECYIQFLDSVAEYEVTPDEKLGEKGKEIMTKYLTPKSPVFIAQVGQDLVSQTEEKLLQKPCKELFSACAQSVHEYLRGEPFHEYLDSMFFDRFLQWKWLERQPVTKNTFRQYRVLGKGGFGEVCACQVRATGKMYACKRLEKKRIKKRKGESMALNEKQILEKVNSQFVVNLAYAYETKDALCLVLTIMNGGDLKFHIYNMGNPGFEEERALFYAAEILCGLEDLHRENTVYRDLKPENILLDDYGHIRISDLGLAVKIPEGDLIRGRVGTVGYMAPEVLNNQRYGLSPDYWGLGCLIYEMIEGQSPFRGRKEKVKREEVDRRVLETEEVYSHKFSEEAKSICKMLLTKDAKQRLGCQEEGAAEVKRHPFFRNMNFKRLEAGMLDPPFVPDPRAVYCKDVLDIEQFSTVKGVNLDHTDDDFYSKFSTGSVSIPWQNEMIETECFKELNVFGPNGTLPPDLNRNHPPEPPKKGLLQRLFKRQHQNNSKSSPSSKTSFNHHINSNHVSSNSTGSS
Chain of Serine/threonine-protein kinase Nek6 (Homo sapiens) (Q9HC98 whole entry): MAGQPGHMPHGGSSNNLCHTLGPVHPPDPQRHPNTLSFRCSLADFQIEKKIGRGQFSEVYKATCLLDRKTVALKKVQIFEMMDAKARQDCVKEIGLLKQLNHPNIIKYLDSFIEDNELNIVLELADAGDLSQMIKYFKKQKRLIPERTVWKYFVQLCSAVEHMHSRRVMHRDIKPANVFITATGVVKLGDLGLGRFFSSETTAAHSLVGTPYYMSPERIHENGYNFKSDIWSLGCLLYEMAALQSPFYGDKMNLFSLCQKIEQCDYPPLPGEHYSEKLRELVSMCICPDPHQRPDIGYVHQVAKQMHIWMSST

CC1=C(C#N)C(c2ccc3[nH]nc(C)c3c2)C(C#N)=C(C)N1 [BAY-474]
inactive: inhibition [1] 16% | inhibition [2] -2% | inhibition [3] 0% | inhibition [4] 2% | inhibition [5] 2% | inhibition [6] -8% | inhibition [7] -10% | inhibition [8] -4% | inhibition [9] 52% | inhibition [10] -6% | inhibition [11] 10% | inhibition [12] -9% | inhibition [13] -6%

CC1=C(C#N)[C@@H](c2ccc3[nH]nc(C)c3c2)C(C#N)=C(c2ccc(Cl)cc2)N1 [BAY-827]
inactive: residual activity [14] 100% | residual activity [15] 100% | residual activity [16] 99.4% | residual activity [17] 72.2% | residual activity [18] 100% | residual activity [19] 100% | residual activity [20] 100% | residual activity [21] 100% | residual activity [22] 100% | residual activity [23] 100% | residual activity [24] 100% | residual activity [25] 100% | residual activity [26] 72.2% | residual activity [27] 67.9% | residual activity [28] 100% | residual activity [29] 99.8% | residual activity [30] 100% | residual activity [31] 58.6% | residual activity [32] 88.9% | residual activity [33] 87.2% | residual activity [34] 77.4% | residual activity [35] 100% | residual activity [36] 100% | residual activity [37] 100% | residual activity [38] 100%
